Measured values: PubChem BioAssay (NCI)
Where “and” joins values, the source holds several entries; their conditions need not be identical. Equal values may be shown once.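 In this assay, cells in 96-well plates receive the compound at five concentrations for 48 hours. Endpoints are linearly interpolated between the surrounding concentrations. Here, GI50 denotes the concentration required for 50% inhibition of growth. TGI: total growth inhibition.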

Legend:
Experiment in all cases: NCI tumour cell line growth inhibition, 48 h
[1] = tested on: A549 NSCLC
[2] = tested on: CCRF-CEM leukemia
[3] = tested on: HCC-2998 colon
[4] = tested on: HCT-116 colon
[5] = tested on: OVCAR-8 ovarian
[6] = tested on: SK-MEL-28 melanoma
[7] = tested on: U251 CNS
[8] = tested on: MDA-N
[9] = tested on: DMS 114 small cell lung
[10] = tested on: KM20L2 colon
[11] = tested on: M19-MEL melanoma
[12] = tested on: P388 leukemia

## CC(=O)O[C@H]1C(=O)[C@]2(C)[C@@H](OC(=O)OCC(O)CO)C[C@H]3OC[C@@]3(OC(C)=O)[C@H]2[C@H](OC(=O)c2ccccc2)[C@]2(O)C[C@H](OC(=O)[C@H](O)[C@@H](NC(=O)c3ccccc3)c3ccccc3)C(C)=C1C2(C)C (stereo partly drawn)
[1]
  TGI: > 100 µM
[2]
  TGI: 31 µM
[3]
  TGI: < 0.01 µM
[4]
  TGI: > 38.9 µM
[5]
  TGI: > 78.1 µM
[6]
  TGI: 39.1 µM
[7]
  TGI: 15.6 µM

## CC(C)(C)CC(C)(C)Cc1ccc(OCCOCC[N+](C)(C)Cc2ccccc2)cc1
[1]
  GI50: 5.06 µM
  TGI: 19.7 µM
[2]
  GI50: 1.31 µM
  TGI: 3.72 µM
[3]
  GI50: 1.58 µM
  TGI: 3.02 µM
[6]
  GI50: 1.56 µM
  TGI: 3.08 µM
[7]
  GI50: 1.56 µM
  TGI: 3.08 µM

## O=C(CCN1CCCC1)Nc1ccc2c(NCCCCc3ccccc3)c3ccccc3nc2c1
[3]
  GI50: 0.815 µM
  TGI: 2.14 µM
[6]
  GI50: 1.8 µM
  TGI: 3.24 µM

## COc1cc(-c2ccc(-c3ccc(C(=N)N)s3)s2)cc(OC)c1OC
[2]
  GI50: 3.42 µM
  TGI: 10.4 µM
[3]
  GI50: 1.76 µM
  TGI: 3.24 µM
[5]
  GI50: 2.62 µM
  TGI: 5.31 µM

## N#Cc1ccc(Nc2nc3nc[nH]c3c(=O)[nH]2)cc1
[1]
  TGI: > 100 µM
[2]
  TGI: > 100 µM
[3]
  TGI: > 100 µM
[4]
  TGI: > 100 µM
[8]
  TGI: > 100 µM
[5]
  TGI: > 100 µM
[6]
  TGI: > 100 µM
[7]
  TGI: > 100 µM

## NC(=O)c1cc2ccccc2c(N=Nc2ccccc2)c1O
[1]
  TGI: > 100 µM
[2]
  TGI: > 100 µM
[4]
  TGI: > 100 µM
[8]
  TGI: > 100 µM
[5]
  TGI: > 100 µM
[6]
  TGI: > 100 µM
[7]
  TGI: 49.2 µM

## CN1CCN(c2ccc3nc(-c4ccc(OCCCN5C(=O)c6cccc7cccc(c67)C5=O)cc4)[nH]c3c2)CC1
[1]
  GI50: 16.3 µM
  TGI: 62.4 µM
[2]
  GI50: 2.62 µM
  TGI: 7.48 µM
[3]
  GI50: 20.6 µM
  TGI: 52.6 µM
[5]
  GI50: 2.38 µM
  TGI: 5.48 µM

## Cc1c2cc[n+](C)cc2c(COC2OC(CO)C(O)C2O)c2c3ccccc3n(C)c12 (stereo not drawn)
[1]
  TGI: > 100 µM
[2]
  TGI: > 100 µM
[9]
  TGI: > 100 µM
[3]
  TGI: > 100 µM
[4]
  TGI: > 100 µM
[10]
  TGI: > 100 µM
[11]
  TGI: > 100 µM
[5]
  TGI: > 100 µM
[12]
  TGI: > 100 µM
[6]
  TGI: > 100 µM
[7]
  TGI: > 100 µM

## Cc1c2cc[n+](C)cc2c(C)c2c1[nH]c1ccc(O)cc12
[1]
  TGI: 99.3 µM
[2]
  TGI: > 92.6 µM
[9]
  TGI: 69.6 µM
[3]
  TGI: 98.7 µM
[4]
  TGI: > 91.6 µM
[10]
  TGI: > 100 µM
[11]
  TGI: 48 µM
[8]
  TGI: > 100 µM
[5]
  TGI: > 98.3 µM
[12]
  TGI: 38.7 µM
[6]
  TGI: 66 µM
[7]
  TGI: 25 µM

## CCP(=O)(CC)C(Cl)(Cl)C(=O)NC
[1]
  TGI: > 100 µM
[2]
  TGI: > 100 µM
[3]
  TGI: > 100 µM
[4]
  TGI: > 100 µM
[8]
  TGI: > 100 µM
[5]
  TGI: > 100 µM
[6]
  TGI: > 100 µM
[7]
  TGI: > 100 µM

## C[Si](C)(C)C#C[I+]c1ccccc1
[1]
  TGI: > 100 µM
[2]
  TGI: 75.8 µM
[9]
  TGI: 39.7 µM
[3]
  TGI: > 100 µM
[4]
  TGI: 56.6 µM
[10]
  TGI: > 100 µM
[11]
  TGI: 83.7 µM
[5]
  TGI: 50.1 µM
[6]
  TGI: > 100 µM
[7]
  TGI: > 100 µM

## COc1cccc2c1C(=O)c1c(O)c3c(c(O)c1C2=O)C[C@@](O)(C(C)=O)C[C@@H]3OC1CC(N)C(O)C(C)O1 (stereo partly drawn)
[1]
  GI50: 0.0153 µM
[4]
  GI50: < 0.0135 µM
[10]
  TGI: 2.86 µM and 1.45 µM and > 5.01 µM
[11]
  GI50: > 5.01 µM
[5]
  GI50: < 0.0201 µM
[12]
  TGI: 0.383 µM
[7]
  GI50: < 0.0145 µM

## CCOC(=O)c1c(NC(=S)NCc2ccccc2)sc2c1CCN(C)C2
[1]
  TGI: > 100 µM
[2]
  TGI: 40.3 µM
[4]
  TGI: > 100 µM
[8]
  TGI: > 100 µM
[5]
  TGI: > 100 µM
